Laboratory results published in ChEMBL document CHEMBL5543168, “Discovery of Urea Derivatives of Celastrol as Selective Peroxiredoxin 1 Inhibitors against Colorectal Cancer Cells” (J Med Chem, 2024).
Active and inactive are the calls of the source. No cut-off for these calls is given here.

Legend:
SW-620 [1] = assay: Anti-proliferative activity against human SW620 cells xenografted in BALB/c nude mouse at 2 mg/kg, ip qd for 16 days by TUNEL analysis; type: functional, organism-based; conditions: time 16.0 day
SW-620 [2] = assay: Antitumor activity against human SW620 cells xenografted in BALB/c nude mouse at 2 mg/kg, ip qd for 16 days relative to control; type: functional; conditions: SW-620, 384 h, time 16 day, read-out: TGI
SW-620 [3] = assay: Induction of cell cycle arrest at G2/M phase in human SW620 cells at 0.5 to 2 uM incubated for 48 hrs by PI staining based flow cytometry relative to control; type: functional; conditions: dose 0.5-2 µM

How did the Activity (SW-620 [1]) turn out when `COC(=O)C1(NC(=O)N[C@]2(C)CC[C@]3(C)CC[C@]4(C)C5=CC=C6C(=CC(=O)C(O)=C6C)[C@]5(C)CC[C@@]4(C)[C@@H]3C2)CCC1` was run?
The Activity was “Active”.

What about the inhibition in vivo at 2 mg/kg (SW-620 [2]) of the same compound?
The inhibition in vivo at 2 mg/kg was 45.4%.

What about the Activity (SW-620 [3]) of the same compound?
Its Activity is 7.1%.
